Test results published in publication PMC8911640, “Synthesis and Structure–Activity Relationship of Thioacetamide-Triazoles against Escherichia coli” (Molecules, 2022).
Converted amounts (≈) assume the structure as drawn. “And” between values parts separate entries of the source, which are not always exact repeats. Equal values may be shown once. Read-outs that look alike come from different tables or passages of the source.

How the values were obtained:
Plasma stability (mouse) = format: in vitro ADME; settings: read-out: Plasma Stability (Mouse) t1/2 (converted)
Protocol: (§1) The in vitro ADME values (solubility, mouse plasma stability, human plasma stability, mouse metabolic stability, and human metabolic stability) were determined as previously reported.

Plasma stability (human) = format: in vitro ADME; settings: read-out: Plasma Stability (Human) t1/2 (converted)
Protocol: as §1

[1] = Metabolic (microsomal) stability (human); format: in vitro ADME; settings: microsomes; for half-life: read-out: Metabolic Stability (Human) t1/2 (converted)
Protocol: as §1

E. coli K12 MG1655 = test: MIC testing by CLSI broth microdilution in M9-based minimal media ATCC 2511, with or without methionine; format: cell-based, Escherichia coli; settings: for MIC90: Escherichia coli
Protocol: To explore the SAR around the right hand aryl portion of the TAT series (Table 1), compounds were evaluated for their in vitro antibacterial activity against E. coli in the M9-based minimal media ATCC 2511. […]. An MIC shift between the two medias was used to indicate that antibacterial activity of the compounds remained on target, and this was happily seen with all of the most MIC active compounds generated in this study. Within the first series of compounds in Table 1, modifications to the phenyl ring are generally well tolerated. MICs remain within 2-fold of the initial hit 1 for the fluoro- and cyano- substituted compounds 1–8. […]. Incorporating the electron-donating group -OMe and sterically bulky iodine group in both ortho and para position, 17–20, maintained activity, whereas the introduction of the strong electron-withdrawing -CF3 group, 21 and 22, led to poorer MIC activity. […] The phenyl ring isosteres—thiazoles 25 and 26—both retained good MIC activity. Adding a methyl branch to the thioacetamide linker 28 and 29 led to a striking loss of activity. Replacement of the aryl group with the aliphatic groups cyclohexyl 31, cyclopentyl 32, tert-butyl groups 33 all reduced activity.
MICs were determined following CLSI broth microdilution susceptibility M100 guidelines. Compound solutions were prepared in DMSO and serially diluted 1:2 in 100 μL/well in 96 well round-bottom plates. E. coli K12 MG1655 was acquired from ATCC and strictly maintained in the M9-based media ATCC 2511. ATCC 2511 was also used for all further cultivation and MIC testing. Bacteria were grown from a single colony to a mid-log OD600 and frozen in 0.5 mL aliquots. These aliquots were used to directly inoculate the assay plates by diluting to an OD600 of 0.001 and plating 100 μL per well, allowing for ~10^5 CFU to be added to each well.

Solubility = format: physicochemical; settings: for solubility: pH 7.4, aqueous buffer
Protocol: as §1

[2] = Metabolic (microsomal) stability (mouse); format: in vitro ADME; settings: microsomes; for half-life: read-out: Metabolic Stability (Mouse) t1/2 (converted)
Protocol: as §1

E. coli K12 = test: Whole cell accumulation in E. coli K12 (LC-MS/MS); design: dose or concentration left out as unconfirmed; settings: 10 min, 37 °C; average of three biological replicates
Protocol: Drug uptake in whole cell E. coli K12, was performed following a modified protocol adapted from previously published studies [17, 25, 26, 27]. […] After incubation, 800 mL of antibiotic-exposed cells were spun (3 min, 13,000× g) through 700 mL of a 9:1 mix of AR20 and high temperature silicon oils (cooled to −80°C). The supernatant of silicone oil and free compound in PBS was carefully removed from pellet. Intracellular concentration of antibiotics within the bacterial cells was then determined.
For lysis, cells were resuspended in 200 mL of water and lysed by three freeze-thaw cycles of 3 min each in liquid nitrogen and in a 60 °C water bath. Lysed cells were pelleted and 150 mL of aqueous extract was transferred to a clean 1.5 mL microcentrifuge tube. Cell debris was resuspended in the remaining 50 mL of water and then extracted with 100 mL of methanol. Cells were again centrifuged, 100 mL of the methanol extract were removed and combined with the water supernatant. The extracts were allowed to rest at room temperature for 1 h before being centrifuged for 10 min at 20,000× g. Finally, extracts were filtered through a 0.22mm spin column to remove any remaining cellular debris.
Samples were analyzed with a Waters Acquity M Class series UPLC system and Xevo G2 QTOF tandem MS/MS with Zspray. Using a Phenomenex Kinetex 2.6 μm XB-C18, 100 Å (300 μm × 150 mm) column with solvent A, 0.1% formic acid in water, and solvent B, 0.1% formic acid in acetonitrile, 250 nL of extract were separated. […] High-resolution spectra were calibrated by co-infusion of 2 ng/mL leucine enkephalin lockspray (Waters). Data were quantified using Waters MassLynx software where the AUC was determined by integrating the daughter peak of the parent ion. Concentrations of the unknown compounds were determined by the linear fit of the standard curve. Concentrations were normalized to the culture density, determined via titers, to 10^10 CFU and are reported as the average of three biological replicates.

[3] = Pharmacokinetic evaluation in mice, single intravenous dose; format: in vivo; settings: 10 mg/kg, plasma
Protocol: Pharmacokinetic parameters of 25 in plasma following a single intravenous dose of 10mg/kg administration to male Balb/c mice were done at SAI LifeSciences Ltd., Telangana, India (Table S2). Briefly, nine male mice were used in this study. All the animals were administered with 25 solution formulation in 5% NMP, 5% Solutol HS-15 and 90% Normal saline intravenously at 10 mg/kg dose. Blood samples (~60 μL) were collected from retro orbital plexus under light isoflurane anesthesia at following time points at Pre-dose, 0.08, 0.25, 0.5, 1, 2, 4, 8 and 24 h. Blood samples were collected from a set of three mice at each time point (sparse sampling) in labeled microcentrifuge tube containing 20% K2EDTA solution as anticoagulant. Plasma samples were separated by centrifugation of whole blood and stored below −70 ± 10 °C until bioanalysis. All samples were processed for analysis by protein precipitation using acetonitrile (ACN) and analyzed with fit-for-purpose LC/MS/MS method (LLOQ: 5.04 ng/mL). Pharmacokinetic parameters were calculated using the non-compartmental analysis tool of Phoenix WinNonlin (Version 7.0). All procedures of the study were in accordance with the guidelines provided by the Committee for the Purpose of Control and Supervision of Experiments on Animals (CPCSEA) as published in The Gazette of India, 15 December 1998. Prior approval of the Institutional Animal Ethics Committee (IAEC) was obtained before initiation of the study.

[4] = MG1655, read-out: E. coli K12 MIC90
[5] = No Supplement (N.S.), ATCC 2511 media, 16 h, 37 °C, read-out: E. coli K12 MIC90
[6] = pH 7.4 (Table S1), read-out: Solubility Avg. Sol
[7] = pH = 7.4, average of triplicate ± standard deviation, read-out: Avg. Sol
[8] = No Supplement (N.S.), ATCC 2511 media, 16 h, 37 °C
[9] = pH = 7.4, average of triplicate ± standard deviation

O=C(CSc1cnn[nH]1)Nc1ccc(F)cc1 [Compound 2]
half-life (Plasma stability (mouse)): 150 ± 12 min
half-life (Plasma stability (human)): 2180 ± 330 min
CLint scaled [1]: 4.4 mL/min/kg
half-life [1]: 282 ± 24 min
MIC90 (E. coli K12 MG1655; [4]): 12.5 µg/mL (≈ 49.5 µM)
MIC90 (E. coli K12 MG1655; [5]): 3.1 µg/mL (≈ 12.3 µM)
%Soluble (Solubility; pH 7.4 (Table S1)): 73.4%
solubility (Solubility; [6]): 18.5 µg/mL and 73.4 µM
solubility (Solubility; [7]): 18 ± 2.3 µg/mL (≈ 71.4 µM)
CLint scaled [2]: 87.4 mL/min/kg
half-life [2]: 39 ± 1.8 min

O=C(NCCSc1cnn[nH]1)c1ccccc1F [Compound 58]
antibacterial activity against E. coli in words (E. coli K12 MG1655; E. coli K12): moderate activity
MIC90 (E. coli K12 MG1655; [5]): 12.5 µg/mL (≈ 46.9 µM)
Whole Cell Accumulation in E. coli (E. coli K12): 7.0 ± 1 μM/10^10 CFU

O=C(CSc1cnn[nH]1)Nc1nccs1 [Compound 25]
AUCinf ([3]; male Balb/c mice): 2807 ng·h/mL
AUC(0-inf) ([3]; male, Balb/c, mouse, iv): 2810 ng·h/mL
AUC(0-t) ([3]; mouse, male Balb/c mice): 2800 ng·h/mL
C0 ([3]; mouse, male Balb/c mice): 7710 ng/mL
clearance ([3]; mouse, male Balb/c mice): 59.4 mL/min/kg
half-life ([3]; mouse, male Balb/c mice, read-out: T(1/2), elimination half-life (converted)): 33 min
Vd ([3]; mouse, male Balb/c mice, read-out: Vss): 1.16 L/kg
half-life (Plasma stability (mouse)): 798 ± 96 min
half-life (Plasma stability (human)): 1930 ± 324 min
CLint scaled [1]: 5.8 mL/min/kg
half-life [1]: 216 ± 18 min
MIC90 (E. coli K12 MG1655; [4]): 12.5 µg/mL (≈ 51.8 µM)
MIC90 (E. coli K12 MG1655; [5]): 3.1 µg/mL (≈ 12.8 µM)
E. coli K12 MIC90 (E. coli K12 MG1655; [8]): ≤ 3.1 µg/mL
%Soluble (Solubility; pH 7.4 (Table S1)): 87.3%
solubility (Solubility; [6]): 21.1 µg/mL and 87.3 µM
Avg. Sol (Solubility; [9]): 21 ± 1.8 µg/mL
CLint scaled [2]: 29.1 mL/min/kg
half-life [2]: 120 ± 6 min

O=C(CSc1cnn[nH]1)Nc1ccc(N2C[C@@H]3NCCO[C@H]3C2)cc1 [Compound 53]
MIC90 (E. coli K12 MG1655; [5]): > 200 µg/mL
Whole Cell Accumulation in E. coli (E. coli K12): 19 ± 1 μM/10^10 CFU

CN1CCN(c2ccc(NC(=O)CSc3cnn[nH]3)cc2)CC1 [Compound 56]
MIC90 (E. coli K12 MG1655; [5]): > 200 µg/mL
Whole Cell Accumulation in E. coli (E. coli K12): 4.7 ± 2 μM/10^10 CFU

O=C(CSc1cnn[nH]1)Nc1ccccn1 [Compound 9]
half-life (Plasma stability (mouse)): 162 ± 12 min
half-life (Plasma stability (human)): 1190 ± 114 min
CLint scaled [1]: 7.7 mL/min/kg
half-life [1]: 162 ± 12 min
MIC90 (E. coli K12 MG1655; [4]): 12.5 µg/mL (≈ 53.1 µM)
MIC90 (E. coli K12 MG1655; [5]): 1.6 µg/mL (≈ 6.8 µM)
E. coli K12 MIC90 (E. coli K12 MG1655; [8]): ≤ 3.1 µg/mL
%Soluble (Solubility; pH 7.4 (Table S1)): 87.4%
solubility (Solubility; [6]): 20.6 µg/mL and 87.4 µM
solubility (Solubility; [7]): 20 ± 0.3 µg/mL (≈ 85 µM)
CLint scaled [2]: 80.4 mL/min/kg
half-life [2]: 42.6 ± 1.2 min

O=C(CSc1cnn[nH]1)Nc1ccccc1F [Compound 1]
half-life (Plasma stability (mouse)): 23.4 ± 0.6 min
half-life (Plasma stability (human)): 2088 ± 18 min
CLint scaled [1]: 7 mL/min/kg
half-life [1]: 180 ± 12 min
MIC90 (E. coli K12 MG1655; [4]): 12.5 µg/mL (≈ 49.5 µM)
MIC90 (E. coli K12 MG1655; [5]): 1.6 µg/mL (≈ 6.34 µM)
E. coli K12 MIC90 (E. coli K12 MG1655; [8]): ≤ 3.1 µg/mL
%Soluble (Solubility; pH 7.4 (Table S1)): 65.2%
solubility (Solubility; [6]): 16.4 µg/mL and 65.2 µM
solubility (Solubility; [7]): 16 ± 0.8 µg/mL (≈ 63.4 µM)
CLint scaled [2]: 209 mL/min/kg
half-life [2]: 16.2 ± 0.6 min

N#Cc1ccccc1NC(=O)CSc1cnn[nH]1 [Compound 3]
half-life (Plasma stability (mouse)): 66 ± 1.2 min
half-life (Plasma stability (human)): 1380 ± 66 min
CLint scaled [1]: 5.7 mL/min/kg
half-life [1]: 222 ± 18 min
MIC90 (E. coli K12 MG1655; [4]): 12.5 µg/mL (≈ 48.2 µM)
MIC90 (E. coli K12 MG1655; [5]): 3.1 µg/mL (≈ 12 µM)
%Soluble (Solubility; pH 7.4 (Table S1)): 73.3%
solubility (Solubility; [6]): 19 µg/mL and 73.3 µM
Avg. Sol (Solubility; [9]): 19 ± 1.5 µg/mL
CLint scaled [2]: 50.5 mL/min/kg
half-life [2]: 67.8 ± 3 min
